Test results from US7598067B2, “PDEs and uses thereof” (priority 2000, dated 2009).
“And” between values parts separate entries of the source, which are not always exact repeats. Identical values can stand only once. Like-named read-outs stand apart in the source and are kept apart here.

Experiments:
[1] = target: TbPDE2B (Trypanosoma brucei, UniProt Q9GQU6); assay: Phosphodiesterase assay, recombinant TbPDE2B expressed in HEK 293 cells; format: biochemical; conditions: for inhibition of recombinant TbPDE2B, in words: 1 μM [3H] cAMP, cGMP up to 200 μM
Sequence of TbPDE2B (Q9GQU6 entry or part of it): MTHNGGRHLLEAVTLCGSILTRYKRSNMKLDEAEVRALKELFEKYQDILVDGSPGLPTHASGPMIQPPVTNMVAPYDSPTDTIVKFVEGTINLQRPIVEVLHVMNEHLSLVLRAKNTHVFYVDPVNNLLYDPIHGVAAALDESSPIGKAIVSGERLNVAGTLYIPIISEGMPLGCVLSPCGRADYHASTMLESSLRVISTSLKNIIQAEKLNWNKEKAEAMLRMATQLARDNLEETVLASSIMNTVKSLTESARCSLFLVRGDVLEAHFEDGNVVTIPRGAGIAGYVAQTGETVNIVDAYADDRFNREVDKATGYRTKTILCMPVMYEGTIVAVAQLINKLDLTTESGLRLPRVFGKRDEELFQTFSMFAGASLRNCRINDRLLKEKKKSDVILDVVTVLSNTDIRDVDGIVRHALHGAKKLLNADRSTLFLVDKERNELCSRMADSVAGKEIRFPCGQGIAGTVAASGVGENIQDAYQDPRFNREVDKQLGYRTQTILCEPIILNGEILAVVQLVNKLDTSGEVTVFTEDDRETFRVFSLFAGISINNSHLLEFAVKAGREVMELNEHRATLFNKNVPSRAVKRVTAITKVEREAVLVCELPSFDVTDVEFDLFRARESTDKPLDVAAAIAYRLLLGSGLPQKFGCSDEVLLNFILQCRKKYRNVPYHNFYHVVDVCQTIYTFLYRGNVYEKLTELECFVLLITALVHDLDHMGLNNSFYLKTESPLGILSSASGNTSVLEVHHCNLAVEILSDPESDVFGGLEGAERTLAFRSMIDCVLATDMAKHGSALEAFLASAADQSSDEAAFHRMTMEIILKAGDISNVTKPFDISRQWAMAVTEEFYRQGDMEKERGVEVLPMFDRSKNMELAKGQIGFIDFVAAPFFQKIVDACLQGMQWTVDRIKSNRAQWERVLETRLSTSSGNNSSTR
Experimental: Expression of T. brucei PDE. The ORF sequence for T. brucei PDE was subcloned into the pcDNA 3.1-TOPO vector (Invitrogen) according to the manual (Eukaryotic TOPO TA Cloning, version C) and plasmid DNA purified as described above. Human embryonic kidney 293 (HEK 293) cells were transfected with 12 μg of DNA in 60 μl of GenePORTER Transfection Reagent (Gene Therapy Systems, San Diego, Calif.) in 100-mm dishes and kept at 37° C. in 5% CO2 for 24 h. After this period fresh medium was added, and incubated under the same conditions for an additional 24 h. The same amount of pcDNA vector containing the sequence for the Green Fluorescent Protein (GFP) was transfected under identical conditions as a positive control for expression and as a negative control for PDE activity. Two plates were harvested at a time and homogenized with 1 ml of homogenization buffer containing 40 mM Tris-HCl, pH 7.5; 15 mM benzamidine; 15 mM 2-mercaptoethanol; 1 μg/ml pepstatin A; 1 μg/ml leupeptin and 5 mM EDTA. The cell suspension was immediately subjected to sonication (3×5 s) on ice. One volume of glycerol and 1 mg/ml of bovine serum albumin were added immediately to the homogenate.
Phosphodiesterase assay. […]

[2] = target: T1, TbPDE2A (Trypanosoma brucei, UniProt Q9GTN9); assay: Phosphodiesterase assay, recombinant TbPDE2A in yeast lysates; format: biochemical
T1 sequence (Q9GTN9 entry or part of it): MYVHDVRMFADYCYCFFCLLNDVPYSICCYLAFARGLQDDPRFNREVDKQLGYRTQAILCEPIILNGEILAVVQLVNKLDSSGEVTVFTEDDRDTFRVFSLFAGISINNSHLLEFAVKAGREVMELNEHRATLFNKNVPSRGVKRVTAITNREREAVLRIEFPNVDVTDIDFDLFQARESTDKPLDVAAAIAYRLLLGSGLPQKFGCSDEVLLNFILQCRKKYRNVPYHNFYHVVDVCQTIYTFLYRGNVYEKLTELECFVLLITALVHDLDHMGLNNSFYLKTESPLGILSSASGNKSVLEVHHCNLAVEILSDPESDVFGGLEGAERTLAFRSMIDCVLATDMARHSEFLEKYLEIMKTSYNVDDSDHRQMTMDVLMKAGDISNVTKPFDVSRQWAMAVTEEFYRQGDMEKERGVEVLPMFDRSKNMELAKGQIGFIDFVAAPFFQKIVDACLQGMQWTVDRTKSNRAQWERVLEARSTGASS
Experimental: Yeast cell lysis. Yeast cells grown to mid- to end-log phase in SC-leu medium were collected, resuspended quickly in an original volume of prewarmed YPD medium and incubated for an additional 3 h at 30° C. in order to maximize protein expression. Cells were then harvested, washed once in water and once in HBBB buffer (Hank's balanced salt solution, containing 50 mM HEPES, pH 7.5). The washed cell pellet was suspended in an equal volume of HBB containing a protease inhibitor cocktail (Complete™, Roche Molecular Biochemicals). […] The cell lysate was clarified by centrifugation for 15 min at 15,000×g.
Phosphodiesterase Assay. […] […] Incubation was at 30° C. for 20 min. […] The precipitates were filtered through GF-C glass fiber fitters and filters were washed 3 times with ice-cold 1 mM NaOH/100 mM NaCl and were then dried and counted in liquid scintillation fluid (4 g/I omnifluor in toluene). All assays were carried out in triplicates and with three independent enzyme preparations. Controls for the efficiency of precipitation of cAMP and of AMP were always included. When assaying yeast cell extracts, control lysates from the PDE deletion strains transfected with empty vector was used as a background control. […] Inhibitors were dissolved in DMSO or ethanol, and the final concentration of the solvent never exceeded 1% in the assays reaction. Incubation times and enzyme concentrations were always adjusted so that less than 30% of the input substrate was hydrolyzed (2-5 μg total protein/100 μl assay). IC50 values were calculated by curve fitting on a four parameter dose-response model with variable slope, using the Prism software package of Graph Pad Inc., San Diego, Calif.

[3] = system: total PDE activity of trypanosomal cell extracts; assay: Total PDE activity in trypanosomal cell extracts; format: biochemical, Trypanosoma brucei
Excerpt: Chemical validation of the TbPDE2 family as a potential drug target. One of the novel PDEs of the invention, TbPDE2A, was expressed as a recombinant protein and was characterized in detail (see above). […].

[4] = system: PDE 6; conditions: read-out: PDE Selectivity (IC50); cited from earlier work
[5] = system: PDE 8; conditions: read-out: PDE Selectivity (IC50); cited from earlier work
[6] = system: PDE 10; conditions: read-out: PDE Selectivity (IC50); cited from earlier work
[7] = system: PDE 3; conditions: read-out: PDE Selectivity (IC50); cited from earlier work
[8] = system: PDE8A and PDE7A from hut78 cells; assay: PDE activity of monoQ HPLC fractions of hut78 cells, low Km peak; format: biochemical, human; conditions: 0.01 μM cAMP; 10 μM rolipram or 100 μM IBMX
Experimental: (§1) Since pure CD4^+ T cells can only be obtained in limited quantities, a human CD4^+ T cell line, hut78, (ATCC, Manassas, Va.), was used to study the activity of PDE8A. Hut78 cells (2×10^8) were resuspended in 20 mM Tris pH 7.5 buffer containing protease inhibitors (Boehringer Mannheim, Indianapolis, Ind.) and sonicated. The supernatant was removed after centrifugation at 15000×g for 10 minutes and applied to a Mono Q column attached to a Rainin Dynamax HPLC system (Ameryville, Calif.). A NaCl gradient (0-0.8M) was passed through the column and 250 uL fractions were collected. The fractions were assayed for activity using either 1 μM or 0.01 μM cAMP as substrate and the indicated concentration of inhibitor (FIG. 5). Western blot analysis was also performed (10 μL/well) using PDE7A or 8A antibodies.

[9] = system: PDE8A; assay: PDE activity of monoQ HPLC fractions of hut78 cells containing only PDE8A; format: biochemical, human; conditions: 0.01 μM cAMP
Experimental: as §1

[10] = system: PDE8A; assay: Activity of immunoprecipitated PDE8A from Hut78 or CD4+ cells; format: biochemical, human
Experimental: Hut78 or CD4^+ cells were harvested at various points after stimulation with CD3 and CD28 antibodies. Cells were resuspended in IP buffer (20 mM Tris pH7.5, 100 mM NaCl, 1 mM benzamidine, 1 μg/mL leupeptin, 1 μg/mL pepstatin, 50 mM NaF, 2 mM EDTA) and sonicated. The cells were centrifuged at 15000×g for 10 minutes. The supernatant was precleared for 2 hours with 0.5 μg mouse IgG and 10 μL protein-G agarose (Santa Cruz Biotechnology, Santa Cruz, Calif.). PDE8A monoclonal antibody was preloaded onto 10 μL protein G-agarose and added to the precleared supernatant. The immunoprecipitations were agitated overnight at 4° C. and the beads washed three times with IP buffer containing 1M NaCl followed by one wash with IP buffer.

[11] = system: PDE8A; conditions: Fisher et al. 1998; cited from earlier work
[12] = system: PDEs (Non-selective); conditions: read-out: PDE Selectivity (IC50); cited from earlier work
[13] = target: T2, human PDE8A (Homo sapiens, UniProt O60658); assay: Activity of sf9 expressed PDE8A, undigested or trypsin digested; format: biochemical; set-up: made in house; host or cells: Sf9 insect cells (supernatant of cell extract); conditions: undigested PDE8A
Experimental: (§2) Briefly, human PDE8A was expressed in Sf9 cells (ATCC, Manassas, Va.). […] The supernatant (10^6 cells/digestion) was isolated and digested with the indicated amounts of trypsin at the indicated times at 30° C. The digestion was stopped with a 100-fold excess of soybean trypsin inhibitor. The activity was assayed with 1 μM cAMP. […] The digested PDE8A was analyzed by Western blot analysis using a peptide antibody specific to the C-terminus (PIL13) or the P4G7 monoclonal antibody.
Target sequence in this assay (O60658 285-829): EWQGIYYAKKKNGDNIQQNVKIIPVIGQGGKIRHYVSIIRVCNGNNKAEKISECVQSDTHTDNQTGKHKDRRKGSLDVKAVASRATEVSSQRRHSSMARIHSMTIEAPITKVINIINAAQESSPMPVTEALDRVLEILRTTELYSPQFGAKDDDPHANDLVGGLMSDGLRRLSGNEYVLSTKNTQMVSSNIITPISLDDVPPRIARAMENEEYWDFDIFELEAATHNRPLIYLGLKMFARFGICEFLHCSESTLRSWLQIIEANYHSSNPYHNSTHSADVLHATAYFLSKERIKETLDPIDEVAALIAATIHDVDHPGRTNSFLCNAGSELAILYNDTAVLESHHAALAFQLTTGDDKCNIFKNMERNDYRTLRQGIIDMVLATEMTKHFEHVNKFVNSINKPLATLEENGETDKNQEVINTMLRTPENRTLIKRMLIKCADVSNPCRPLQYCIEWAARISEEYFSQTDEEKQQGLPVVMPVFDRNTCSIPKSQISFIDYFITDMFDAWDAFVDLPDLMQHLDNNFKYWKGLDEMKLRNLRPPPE

[14] = target: T2, human PDE8A; assay: as above; format: biochemical; set-up: human PDE8A was expressed in Sf9 cells (ATCC, Manassas, Va.); This PDE8A was already N-terminally truncated at position 285; fused on or other part: N-terminal FLAG tag ([…]...) on the undigested construct; conditions: trypsin digested PDE8A; at 1 μM IBMX
Experimental: as §2
Target sequence in this assay (O60658 whole entry): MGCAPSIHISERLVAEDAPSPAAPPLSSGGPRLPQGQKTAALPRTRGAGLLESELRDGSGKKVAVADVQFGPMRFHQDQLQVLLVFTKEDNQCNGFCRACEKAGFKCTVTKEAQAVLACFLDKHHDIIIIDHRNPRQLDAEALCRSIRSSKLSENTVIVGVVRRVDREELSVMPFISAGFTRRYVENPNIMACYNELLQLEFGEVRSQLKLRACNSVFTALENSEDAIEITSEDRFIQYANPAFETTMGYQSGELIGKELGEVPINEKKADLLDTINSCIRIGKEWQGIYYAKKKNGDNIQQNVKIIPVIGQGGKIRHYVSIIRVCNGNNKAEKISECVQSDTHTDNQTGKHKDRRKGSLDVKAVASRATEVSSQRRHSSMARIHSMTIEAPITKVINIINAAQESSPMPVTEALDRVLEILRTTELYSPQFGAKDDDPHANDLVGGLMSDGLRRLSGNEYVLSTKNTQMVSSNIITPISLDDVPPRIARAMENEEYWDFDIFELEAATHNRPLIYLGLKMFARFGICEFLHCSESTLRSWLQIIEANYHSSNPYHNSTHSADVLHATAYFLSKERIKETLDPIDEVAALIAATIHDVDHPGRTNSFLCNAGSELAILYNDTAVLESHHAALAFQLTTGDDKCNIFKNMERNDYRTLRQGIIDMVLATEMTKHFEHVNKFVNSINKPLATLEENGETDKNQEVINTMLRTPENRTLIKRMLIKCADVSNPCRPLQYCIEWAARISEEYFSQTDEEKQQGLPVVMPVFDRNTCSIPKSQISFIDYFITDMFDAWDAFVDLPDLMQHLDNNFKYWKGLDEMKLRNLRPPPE

[15] = system: TbPDE2C; assay: Recombinant TbPDE2C expressed in S. cerevisiae; format: biochemical, Trypanosoma brucei
Excerpt: We also have expressed a second family member, TbPDE2C, as a recombinant protein in the yeast S. cerevisiae and have characterized it was previously done for TbPDE2A.

[16] = target: T1, TbPDE2A; conditions: Table 2, from reference; cited from earlier work
[17] = full-size TbPDE2A, yeast lysates, 1 μM cAMP

SMILES: OCCN(CCO)c1nc(N2CCCCC2)c2nc(N(CCO)CCO)nc(N3CCCCC3)c2n1 [Dipyridamole, dipyridamole]
- IC50 [1]: 27 µM
- IC50 [2, 17]: 5.8 µM and 5.9 µM
- IC50 for TbPDE2A (μM) [2, 17]: low micromolar range
- total PDE activity [3]: marked, if not complete, reduction
- IC50 [4]: 0.38 µM
- IC50 [5]: 4.5 µM
- IC50 [6]: 1.1 µM

SMILES: CSc1ccc(C(=O)c2[nH]c(=O)[nH]c2C)cc1 [Enoximone, enoximone]
- IC50 [1]: > 100 µM
- inhibition of recombinant TbPDE2B, in words [1]: No IC50 could be obtained
- IC50 [7]: 1 µM

SMILES: CC(C)Cn1c(=O)n(C)c(=O)c2[nH]cnc21 [IBMX, 3-Isobutyl-1-methylxanthine]
- sensitivity of the PDE activity peak [8]: sensitive
- activity of fractions that contained only PDE8A [9]: inhibited
- immunoprecipitated PDE8A activity from hut78 cells ([10]; 100 μM IBMX, FIG. 6A): inhibited
- increase in immunoprecipitated PDE8A activity after activation ([10]; CD4+ T cells): could be inhibited
- IC50 [1]: > 1000 µM
- inhibition of recombinant TbPDE2B, in words [1]: extremely low sensitivity
- effectiveness on TbPDE2A, in words [2]: not effective
- effect on TbPDE2A activity in initial screening ([2]; 100 μM inhibitor, 1 μM cAMP, FIG. 26): ineffective
- IC50 [2, 17]: 545 µM
- sensitivity of recombinant expressed PDE8A [11]: resistant
- IC50 [12]: 2 to 50 µM
- IBMX inhibition of undigested PDE8A [13]: resistant
- activity of undigested PDE8A ([13]; at 1 μM IBMX): unchanged
- activity retained [14]: 40%

SMILES: Nc1nc2c(ncn2[C@@H]2O[C@@H]3COP(=O)(O)O[C@H]3[C@H]2O)c(=O)[nH]1 [cGMP]
- inhibition of recombinant TbPDE2B, in words [1]: not stimulated or inhibited
- IC50 ([1]; Substrate concentration 1 μM [3H]-cAMP, read-out: TbPDE2B IC50 (μM) (n = 3)): > 200 µM
- cAMP hydrolysis by TbPDE2A in the presence of cGMP ([2]; 100-fold excess of cGMP, full-size and truncated constructs): unaffected
- effect on activity of TbPDE2C [15]: does not affect the activity
- IC50 [16]: > 100 µM
